According to paper PMC10675604, “Cetirizine and Levetiracetam as Inhibitors of Monoacylglycerol Lipase: Investigating Their Repurposing Potential as Novel Osteoarthritic Pain Therapies” (Pharmaceuticals, 2023):

Molecular target: T1, monoacylglycerol lipase (MAGL) (Homo sapiens, UniProt Q99685)
T1 construct: gene MGLL
T1 sequence (Q99685 1-303): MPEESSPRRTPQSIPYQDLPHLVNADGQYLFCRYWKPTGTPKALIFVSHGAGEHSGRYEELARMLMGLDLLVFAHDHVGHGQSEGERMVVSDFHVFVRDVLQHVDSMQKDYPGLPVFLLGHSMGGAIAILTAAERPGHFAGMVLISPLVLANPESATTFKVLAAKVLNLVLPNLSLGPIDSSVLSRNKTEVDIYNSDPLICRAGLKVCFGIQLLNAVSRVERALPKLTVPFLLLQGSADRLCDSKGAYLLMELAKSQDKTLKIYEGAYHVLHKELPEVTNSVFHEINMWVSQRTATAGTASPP
Test: colorimetric MAGL inhibition assay (Cayman kit […], 4-nitrophenyl acetate hydrolysis, […] nm)
Assay type: biochemical

Compound | IC50 [µM]
O=C(O)COCCN1CCN(C(c2ccccc2)c2ccc(Cl)cc2)CC1 (centres unmarked) [cetirizine] | 9.39
CC[C@@H](C(N)=O)N1CCCC1=O [levetiracetam] | 3.01
